# Experimental data as given in EP1935887A1, “Heterocyclic substituted carbonyl derivatives and their use as dopamine D3 receptor ligands” (Aventis Pharmaceuticals Inc., priority 2001, dated 2002).
# Molecular target: T1, Cloned Human Dopamine D3 Receptors (Homo sapiens, UniProt P35462)
# T1 construct: expressed in transfected cells; membrane homogenate
# Assay: [N-Methyl-3H]Spiroperidol binding to cloned human dopamine D3 receptors
# Conditions: Table 2; unit inferred; read-out: d3Ki
# Summary of the method: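 [N-methyl-3H]spiroperidol binding is run in Tris buffer, pH 7.7. Receptor source is membranes of a stably transfected, high-expressing CHO clone carrying the human D3 gene, kept at -80°C in 10% DMSO.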
# T1 sequence (P35462 whole entry): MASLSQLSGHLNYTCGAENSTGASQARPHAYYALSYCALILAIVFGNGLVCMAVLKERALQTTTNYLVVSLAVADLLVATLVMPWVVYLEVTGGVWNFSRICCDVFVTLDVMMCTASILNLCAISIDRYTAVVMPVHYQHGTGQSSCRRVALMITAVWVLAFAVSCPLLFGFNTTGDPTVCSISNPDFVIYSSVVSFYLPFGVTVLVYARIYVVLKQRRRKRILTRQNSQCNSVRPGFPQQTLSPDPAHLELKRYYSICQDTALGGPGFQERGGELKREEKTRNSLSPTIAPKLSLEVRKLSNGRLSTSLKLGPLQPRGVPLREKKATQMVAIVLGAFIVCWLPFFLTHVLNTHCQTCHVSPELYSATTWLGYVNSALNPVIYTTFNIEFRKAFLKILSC
row,Ki [nM],Structure (SMILES)
1,106,COc1cc(CNC(=O)[C@@H]2C[C@H]2CN2CCN(c3csc4cc(C(F)(F)F)ccc34)CC2)cc(OC)c1OC [compound 826079]
2,14.8,O=C(NCCc1ccccn1)[C@@H]1C[C@H]1CN1CCN(c2csc3cc(C(F)(F)F)ccc23)CC1 [compound 826080]
3,31,O=C(NC1CCCCCCCC1)[C@@H]1C[C@H]1CN1CCN(c2csc3cc(C(F)(F)F)ccc23)CC1 [compound 826655]
4,45,O=C(NCCN1CCOCC1)[C@@H]1C[C@H]1CN1CCN(c2csc3cc(C(F)(F)F)ccc23)CC1 [compound 826656]
5,17,O=C(NC1CCCC1)[C@@H]1C[C@H]1CN1CCN(c2csc3cc(C(F)(F)F)ccc23)CC1 [compound 826658]
6,34.2,C[C@H]1CC[C@H](NC(=O)CCCN2CCCN(c3csc4cc(F)ccc34)CC2)CC1 [compound 826824]
7,74.9,CCOC(=O)[C@H]1CC[C@H](NC(=O)CCCN2CCCN(c3csc4cc(F)ccc34)CC2)CC1 [compound 826825]
8,27.4,CC[C@H]1CC[C@H](NC(=O)CCCN2CCCN(c3csc4cc(F)ccc34)CC2)CC1 [compound 826826]
9,39.5,CC1CCCC(NC(=O)CCCN2CCCN(c3csc4cc(F)ccc34)CC2)C1 (centres unmarked) [compound 826827]
10,15,CCN(C(=O)CCCN1CCCN(c2csc3cc(F)ccc23)CC1)C1CCCCC1 [compound 826829]
11,25.1,O=C(CCCN1CCCN(c2csc3cc(F)ccc23)CC1)N(CCO)C1CCCCC1 [compound 826830]

# Same assay, conditions: Table 2 part the 10th table; read-out: d3Ki
row,Ki [nM],Structure (SMILES)
1,18.6,O=C([C@@H]1C[C@H]1CN1CCN(c2csc3cc(C(F)(F)F)ccc23)CC1)N1CCCCC1 [compound 826081]
2,219,O=C([C@@H]1CCCC[C@@H]1CN1CCN(c2csc3cc(C(F)(F)F)ccc23)CC1)N1CCCCC1 [compound 826119]
3,14,O=C([C@@H]1C[C@H]1CN1CCN(c2csc3cc(C(F)(F)F)ccc23)CC1)N1CCCC1 [compound 826657]
4,140,CCOC(=O)C1CN(C(=O)[C@@H]2C[C@H]2CN2CCN(c3csc4cc(C(F)(F)F)ccc34)CC2)CCC1=O (some centres unmarked) [compound 826659]
5,53,O=C([C@@H]1C[C@H]1CN1CCN(c2csc3cc(C(F)(F)F)ccc23)CC1)N1CCC(O)CC1 [compound 826660]
6,25,NC(=O)C1CCN(C(=O)[C@@H]2C[C@H]2CN2CCN(c3csc4cc(C(F)(F)F)ccc34)CC2)CC1 [compound 826661]
7,69,O=C([C@@H]1C[C@H]1CN1CCN(c2csc3cc(C(F)(F)F)ccc23)CC1)N1CCC(Cc2ccccc2)CC1 [compound 826662]
8,0.24,O=C([C@@H]1C[C@H]1CN1CCN(c2csc3cc(F)ccc23)CC1)N1CCCC1 [compound 826669]
9,6.8,CCOC(=O)C1CN(C(=O)[C@@H]2C[C@H]2CN2CCN(c3csc4cc(F)ccc34)CC2)CCC1=O (some centres unmarked) [compound 826671]
10,7.9,O=C([C@@H]1C[C@H]1CN1CCN(c2csc3cc(F)ccc23)CC1)N1CCC(Cc2ccccc2)CC1 [compound 826673]
11,48,N#CC1(c2ccccc2)CCN(C(=O)[C@@H]2C[C@H]2CN2CCN(c3csc4cc(F)ccc34)CC2)CC1 [compound 826674]
12,8,CC1CCCC(C)N1C(=O)[C@@H]1C[C@H]1CN1CCN(c2csc3cc(F)ccc23)CC1 (some centres unmarked) [compound 826675]
13,2,O=C([C@@H]1C[C@H]1CN1CCN(c2csc3cc(F)ccc23)CC1)N1CCCCC1 [compound 826676]
14,3.7,O=C([C@@H]1C[C@H]1CN1CCCN(c2csc3cc(C(F)(F)F)ccc23)CC1)N1CCCC1 [compound 826683]
15,154,CCOC(=O)C1CN(C(=O)C2CC2CN2CCCN(c3csc4cc(C(F)(F)F)ccc34)CC2)CCC1=O (centres unmarked) [compound 826685]
16,26,O=C([C@@H]1C[C@H]1CN1CCCN(c2csc3cc(C(F)(F)F)ccc23)CC1)N1CCC(O)CC1 [compound 826686]
17,132,NC(=O)C1CCN(C(=O)[C@@H]2C[C@H]2CN2CCCN(c3csc4cc(C(F)(F)F)ccc34)CC2)CC1 [compound 826687]
18,217,O=C([C@@H]1C[C@H]1CN1CCCN(c2csc3cc(C(F)(F)F)ccc23)CC1)N1CCC(Cc2ccccc2)CC1 [compound 826688]
19,674,N#CC1(c2ccccc2)CCN(C(=O)[C@@H]2C[C@H]2CN2CCCN(c3csc4cc(C(F)(F)F)ccc34)CC2)CC1 [compound 826689]
20,35,O=C([C@@H]1C[C@H]1CN1CCCN(c2csc3cc(C(F)(F)F)ccc23)CC1)N1CCOCC1 [compound 826691]
21,2.55,CCOC(=O)C1CCN(C(=O)CCCN2CCCN(c3csc4cc(F)ccc34)CC2)CC1 [compound 826831]
22,16.1,O=C(CCCN1CCCN(c2csc3cc(F)ccc23)CC1)N1CCC(O)CC1 [compound 826832]
23,0.872,CC1CCCCN1C(=O)CCCN1CCCN(c2csc3cc(F)ccc23)CC1 (centres unmarked) [compound 826833]
24,8.01,CC1CCN(C(=O)CCCN2CCCN(c3csc4cc(F)ccc34)CC2)CC1 [compound 826834]
25,2.12,CC1CCCN(C(=O)CCCN2CCCN(c3csc4cc(F)ccc34)CC2)C1 (centres unmarked) [compound 826835]
26,2.23,O=C(CCCN1CCCN(c2csc3cc(F)ccc23)CC1)N1CCC(N2CCCC2)CC1 [compound 826836]
27,8.8,CC1(C)CCCN(C(=O)CCCN2CCCN(c3csc4cc(F)ccc34)CC2)C1 [compound 826837]

# Same assay, conditions: d3Ki, Table 2 part the 10th table
row,Structure (SMILES),Ki [nM]
1,O=C([C@@H]1C[C@H]1CN1CCN(c2csc3cc(C(F)(F)F)ccc23)CC1)N1CCC(N2CCCC2)CC1 [compound 826664],9.4
2,O=C([C@@H]1C[C@H]1CN1CCN(c2csc3cc(F)ccc23)CC1)N1CCC(O)CC1 [compound 826672],0.64

# Same assay, conditions: read-out: d3Ki
row,Ki [nM],Structure (SMILES)
1,103,CN(C)c1ccc(CNC(=O)[C@@H]2CCCC[C@H]2CN2CCN(c3csc4cc(C(F)(F)F)ccc34)CC2)cc1 [compound 826086]
2,293,Cc1cccc(CNC(=O)[C@@H]2CCCC[C@H]2CN2CCN(c3csc4cc(C(F)(F)F)ccc34)CC2)c1 [compound 826092]
3,451,O=C(NCc1ccc2c(c1)OCO2)[C@@H]1CCCC[C@H]1CN1CCN(c2csc3cc(C(F)(F)F)ccc23)CC1 [compound 826098]
4,193,O=C(Nc1cccnc1)[C@@H]1CCCC[C@H]1CN1CCN(c2csc3cc(C(F)(F)F)ccc23)CC1 [compound 826100]
5,210,O=C(NCc1nc2ccccc2[nH]1)[C@@H]1CCCC[C@@H]1CN1CCN(c2csc3cc(C(F)(F)F)ccc23)CC1 [compound 826102]
6,16.8,CN(C)c1ccc(CNC(=O)[C@@H]2CCCC[C@@H]2CN2CCN(c3csc4cc(C(F)(F)F)ccc34)CC2)cc1 [compound 826104]
7,690,O=C(NC1CC1)[C@@H]1CCCC[C@@H]1CN1CCN(c2csc3cc(C(F)(F)F)ccc23)CC1 [compound 826105]
8,230,O=C(NCc1ccccc1)[C@@H]1CCCC[C@@H]1CN1CCN(c2csc3cc(C(F)(F)F)ccc23)CC1 [compound 826106]
9,100,O=C(NCc1ccc(C(F)(F)F)cc1)[C@@H]1CCCC[C@@H]1CN1CCN(c2csc3cc(C(F)(F)F)ccc23)CC1 [compound 826108]
10,200,O=C(NC1CCCCC1)[C@@H]1CCCC[C@@H]1CN1CCN(c2csc3cc(C(F)(F)F)ccc23)CC1 [compound 826113]
11,72.3,O=C(NCc1ccc2c(c1)OCO2)[C@@H]1CCCC[C@@H]1CN1CCN(c2csc3cc(C(F)(F)F)ccc23)CC1 [compound 826115]
12,59.9,COc1cc(CNC(=O)[C@@H]2CCCC[C@@H]2CN2CCN(c3csc4cc(C(F)(F)F)ccc34)CC2)cc(OC)c1OC [compound 826116]
13,241,O=C(NCCc1ccccn1)[C@@H]1CCCC[C@@H]1CN1CCN(c2csc3cc(C(F)(F)F)ccc23)CC1 [compound 826117]
14,568,O=C(Nc1cccnc1)[C@@H]1CCCC[C@@H]1CN1CCN(c2csc3cc(C(F)(F)F)ccc23)CC1 [compound 826118]
15,487,O=C(NCc1ccccn1)[C@@H]1CCCC[C@H]1CN1CCN(c2csc3cc(C(F)(F)F)ccc23)CC1 [compound 826120]
16,502,O=C(NC1CC1)[C@@H]1CCCC[C@H]1CN1CCN(c2csc3cc(C(F)(F)F)ccc23)CC1 [compound 826121]
17,130,O=C(NCc1ccco1)[C@@H]1CCCC[C@@H]1CN1CCN(c2csc3cc(C(F)(F)F)ccc23)CC1 [compound 826122]
18,1.9,C[C@H]1CC[C@H](NC(=O)[C@@H]2C[C@H]2CN2CCN(c3csc4cc(F)ccc34)CC2)CC1 [compound 826665]
19,6.3,COC(=O)[C@H]1CC[C@H](NC(=O)[C@@H]2C[C@H]2CN2CCN(c3csc4cc(F)ccc34)CC2)CC1 [compound 826666]
20,2.5,CC[C@H]1CC[C@H](NC(=O)[C@@H]2C[C@H]2CN2CCN(c3csc4cc(F)ccc34)CC2)CC1 [compound 826667]
21,3.9,O=C(NC1CCCCCCCC1)[C@@H]1C[C@H]1CN1CCN(c2csc3cc(F)ccc23)CC1 [compound 826668]
22,4.2,O=C(NC1CCCC1)[C@@H]1C[C@H]1CN1CCN(c2csc3cc(F)ccc23)CC1 [compound 826670]
23,2.3,O=C(NC1CCCCC1)[C@@H]1C[C@H]1CN1CCN(c2csc3cc(F)ccc23)CC1 [compound 826677]
24,9.1,CCOC(=O)[C@H]1CC[C@H](NC(=O)[C@@H]2C[C@H]2CN2CCCN(c3csc4cc(C(F)(F)F)ccc34)CC2)CC1 [compound 826679]
25,58,CC[C@H]1CC[C@H](NC(=O)[C@@H]2C[C@H]2CN2CCCN(c3csc4cc(C(F)(F)F)ccc34)CC2)CC1 [compound 826680]
26,48,O=C(NC1CCCCCCCC1)[C@@H]1C[C@H]1CN1CCCN(c2csc3cc(C(F)(F)F)ccc23)CC1 [compound 826681]
27,103,O=C(NCCN1CCOCC1)[C@@H]1C[C@H]1CN1CCCN(c2csc3cc(C(F)(F)F)ccc23)CC1 [compound 826682]
28,7.9,O=C(NC1CCCC1)[C@@H]1C[C@H]1CN1CCCN(c2csc3cc(C(F)(F)F)ccc23)CC1 [compound 826684]
